Source: patent US12011433B2 (UNIVERSITÁ DEGLI STUDI DI BARI “ALDO MORO”, priority 2016, dated 2024)

Tests used:
[1] = Caco-2 monolayer efflux assay, Apparent Permeability (Papp), with or without GLUT-1 inhibitor phloretin; assay type: in vitro ADME, Human; settings: human, compound alone
Method: (§1) In a monolayer efflux assay, the Apparent Permeability (Papp) in both basolateral to apical [Papp(B→A)] and apical to basolateral [Papp(A→B)] directions was determined for each compound (FIG. 2). Human colonic adenocarcinoma cell line (Caco-2) presents a facilitated transport system at the apical and basolateral surface. Caco-2 cells express high levels of GLUT-1 that are localized to the basolateral membrane and transport glucose to the serosal side.
(§2) The Papp(B→A) flux of each compound alone or in the presence of phloretin, a GLUT-1 inhibitor, has been determined. Since GLUT-1 is express in the basolateral compartment a high B→A flux means that the transport is GLUT-1 mediated because B→A flux represents the active transport.
(§3) A→B flux, which represents the passive transport, has also been determined for each compound (Table 2).

Caco-2 cells = experiment: as above; assay type: in vitro ADME, Human; settings: compound alone
Method: as §1, §2, §3

p-IkBα = experiment: NF-kB activation (p-IkBα) in brain areas of LPS-treated mice, immunoblotting; assay type: in vivo; settings: all tested brain areas of LPS-treated mice
Method: The protein concentration in the supernatant was spectrophotometrically determined by Bradford's protein assay (Bradford, 1976). […] Proteins (25 μg/lane) and prestained standards (BioRad Laboratories, Hercules, CA, USA) were loaded on 7% or 12% SDS precast polyacrylamide gels (BioRad Laboratories). After electrophoresis, the resolved proteins were transferred from the gel to nitrocellulose membranes. A blotting buffer [20 mMTris/150 mM glycine, pH=8.0, 20% (v/v) methanol] was used for gel and membrane saturation and blotting. […] Bands were visualized by chemiluminescence detection (Invitrogen, Milan, Italy). The β-actin level was used as a protein loading control. For tissue analysis, obtained bands were normalized to the level of β-actin performed for each cerebral area tested. For cell cultures the bands were normalized to the β-actin level in each experimental condition. […] VM in all the Figures) once a day for 10 days. […] On the seventh day, mice were anesthetized with tribromoethanol (250 mg/Kg, i.p.) and positioned in a stereotactic apparatus (Kopf Instruments, Tujunga, CA, USA).

COX-2 = COX-2 (Homo sapiens, UniProt P35354); experiment: colorimetric COX Inhibitor screening Assay (peroxidase component, oxidized TMPD at 590 nm); assay type: biochemical; settings: at 50 μM, the highest concentration tested
Chain of COX-2 (P35354 18-604 limits assumed): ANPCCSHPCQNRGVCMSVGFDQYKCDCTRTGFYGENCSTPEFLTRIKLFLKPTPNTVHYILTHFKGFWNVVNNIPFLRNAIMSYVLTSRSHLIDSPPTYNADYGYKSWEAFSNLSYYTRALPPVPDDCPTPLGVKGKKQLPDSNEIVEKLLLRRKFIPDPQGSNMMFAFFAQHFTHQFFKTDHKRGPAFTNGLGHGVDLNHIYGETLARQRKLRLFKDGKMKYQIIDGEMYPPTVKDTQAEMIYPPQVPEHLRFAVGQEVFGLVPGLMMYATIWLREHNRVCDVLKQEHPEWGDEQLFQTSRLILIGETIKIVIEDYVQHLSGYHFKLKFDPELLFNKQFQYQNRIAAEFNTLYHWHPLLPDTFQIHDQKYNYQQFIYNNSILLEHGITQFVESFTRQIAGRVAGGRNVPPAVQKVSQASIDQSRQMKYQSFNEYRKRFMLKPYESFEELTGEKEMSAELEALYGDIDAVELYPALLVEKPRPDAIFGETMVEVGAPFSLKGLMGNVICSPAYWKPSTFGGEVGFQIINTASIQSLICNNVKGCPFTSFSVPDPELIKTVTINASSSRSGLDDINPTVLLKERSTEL
Method: Human cyclooxygenase inhibitory activity was determined by a colorimetric COX Inhibitor screening Assay which measures the peroxidase component of the cyclooxygenases, monitoring the appearance of oxidized N,N,N′,N′-tetramethyl-p-phenylenediamine (TMPD) at 590 nm.

BV2 microglial cells = experiment: BV2 microglial cell viability, MTT reduction assay; assay type: cell-based; settings: 24 h, P6 0.5 and 1 μM, mofezolac 0.1 and 0.5 μM, alone or with LPS
Method: (§4) Cells were then incubated for different times at 37° C. with LPS, as pro-inflammatory stimulus. Experiments included cells grown in medium alone (control).
Cell viability of microglial cells was quantified using the MTT reduction assay. The cells (8×10^3/well) were grown in 96-well plates (Becton Dickinson Labware) in complete medium and treated with different concentration of COX inhibitors, in presence or absence of LPS. Untreated cells were used as a control. A PBS 1× solution of MTT (5 mg/mL) was prepared and added to the cell medium at a final concentration of 0.5 mg/mL. Cells were incubated for 4 h at 37° C. and 5% CO2 to allow the MTT metabolism. The formazan crystals formed (from MTT) into the cells were solubilized with DMSO (Sigma-Aldrich). The levels of MTT formazan were determined measuring the optical density at λ=560 nm and subtracting the background (λ=670 nm) with a Victor Multiplate Reader (Wallac). Optical density was directly correlated to cell quantity.

COX-1 [2] = molecular target: T1, COX-1 (Mus musculus (Mouse), UniProt P22437); experiment: COX-1 expression in brain regions of LPS-treated mice, immunoblotting; assay type: in vivo; settings: for COX-1 expression reduction (%): LPS-treated mice, mofezolac 6 mg/kg i.p.
Method: Substantia nigra pars compacta (SNpc), Hippocampus, Frontal lobe and Caudate from mice brains were minced in ice-cold PBS, washed and then homogenized in a buffer containing lysis buffer (50 mM Tris pH 8, 0.02 g/mL NaCl, 0.2% SDS, 1% Triton-X, 4 U/ml aprotinin, 2 mM leupeptin, 100 mM phenylmethanesulfonyl fluoride).
(§5) The tissue and cell culture lysates were vortexed for 15-20 s and, then, centrifuged at 12,800×g for 20 min. The protein concentration in the supernatant was spectrophotometrically determined by Bradford's protein assay (Bradford, 1976). Protein samples were diluted with sample buffer (0.5 M Tris-HCl pH=6.8, 10% glycerol, 10% (w/v) SDS, 5% 2-mercaptoethanol, 0.05% (w/v) bromophenol blue) and then boiled for 3 min. Proteins (25 μg/lane) and prestained standards (BioRad Laboratories, Hercules, CA, USA) were loaded on 7% or 12% SDS precast polyacrylamide gels (BioRad Laboratories).
(§6) After electrophoresis, the resolved proteins were transferred from the gel to nitrocellulose membranes. A blotting buffer [20 mMTris/150 mM glycine, pH=8.0, 20% (v/v) methanol] was used for gel and membrane saturation and blotting. Then, membranes were incubated in the dark with 1 μg/mL mouse monoclonal antibody (MoAb) anti-COX-1 and rabbit polyclonal Ab anti-COX-2 (1:1000) (both from AbCam, Cambridge, UK), rabbit polyclonal Ab anti p-IkB-α (1:200), mouse polyclonal Ab anti β-actin (1:500) (all from Santa Cruz Biotechnology), mouse MoAb anti-glial fibrillary acidic protein (GFAP) (1:200) and mouse mAb anti-ionized calcium-binding adapter molecule-1 (Iba-1) (1:200) (both from Merck Millipore) overnight at 4° C. The membranes were washed with 0.1% Tween 20-PBS (for 20 min, 3 times) and then incubated with the secondary antibody diluted 1:2000 for 60 min. Bands were visualized by chemiluminescence detection (Invitrogen, Milan, Italy). The β-actin level was used as a protein loading control. For tissue analysis, obtained bands were normalized to the level of β-actin performed for each cerebral area tested. For cell cultures the bands were normalized to the β-actin level in each experimental condition.
On the seventh day, mice were anesthetized with tribromoethanol (250 mg/Kg, i.p.) and positioned in a stereotactic apparatus (Kopf Instruments, Tujunga, CA, USA). […] Sterotaxic injections coordinates were: 2.3 mm dorsal/ventral, 1.0 mm lateral, and 0.5 mm anterior/posterior from the bregma.

COX-1 [3] = molecular target: T1, COX-1; experiment: COX-1 expression in LPS-treated BV2 microglial cells, western blotting; assay type: cell-based
Method: as §4, §5, §6

- Papp B→A [1]: 46.1 ×10⁻⁶ cm/s
- Papp A→B (Caco-2 cells): 41.4 ×10⁻⁶ cm/s
- Papp B→A (Caco-2 cells): 46.1 ×10⁻⁶ cm/s
- inhibition at 50 µM (COX-2): 38%
- COX-1 expression reduction (%) (COX-1 [2]; Caudate): 95%
- COX-1 expression reduction (%) (COX-1 [2]; Frontal lobe): 94%
- COX-1 expression reduction (%) (COX-1 [2]; Hippocampus): 82%
- COX-1 expression reduction (%) (COX-1 [2]; Substantia nigra): 89%
- COX-1 expression levels (COX-1 [3]; BV2 cells, 48 h of incubation with LPS, 1 h pre-treated): significantly reduced
- COX-1 expression reduction (COX-1 [3]; LPS-activated BV2 cells, independently from its concentration (0.1 and 0.5 μM)): 78%
SMILES: COc1ccc(-c2noc(CC(=O)O)c2-c2ccc(OC)cc2)cc1 [mofezolac, 2-(3,4-bis(4-methoxyphenyl)isoxazol-5-yl)acetic acid]
- p-IkBα (p-IkBα): significant reduction
- cell toxicity (BV2 microglial cells): No cell toxicity
- COX-1 expression (COX-1 [2]; LPS challenged mice, all brain areas tested): significantly reduction of COX-1 expression
